Key:
Leishmania tropica = assay: Antileishmanial activity against Leishmania tropica MHOM/IT/2012/ISS3130 promastigotes assessed as inhibition of parasite growth after 72 hrs by MTT assay; format: functional, organism-based; settings: MHOM/IT/2012/ISS3130, 72 h
[1] = Selectivity index, ratio of IC50 for HMEC1 to IC50 for Leishmania tropica MHOM/IT/2012/ISS3130
[2] = Selectivity index, ratio of IC50 for HMEC1 to IC50 for Leishmania infantum MHOM/TN/80/IPT1
Plasmodium falciparum [3] = assay: Antiplasmodial activity against chloroquine-sensitive Plasmodium falciparum D10 assessed as inhibition of parasite growth after 72 hrs by parasite lactate dehydrogenase assay; format: functional, organism-based; settings: D10, 72 h
Leishmania infantum = assay: Antileishmanial activity against Leishmania infantum MHOM/TN/80/IPT1 promastigotes assessed as inhibition of parasite growth after 72 hrs by MTT assay; format: functional, organism-based; settings: MHOM/TN/80/IPT1, 72 h
[4] = Selectivity index, ratio of IC50 for HMEC1 to IC50 for chloroquine-resistant Plasmodium falciparum W2
[5] = Cytotoxicity against HMEC1 cells after 72 hrs by MTT assay; format: cell-based; settings: Homo sapiens, HMEC-1, 72 h
Plasmodium falciparum [6] = assay: Antiplasmodial activity against chloroquine-resistant Plasmodium falciparum W2 assessed as inhibition of parasite growth after 72 hrs by parasite lactate dehydrogenase assay; format: functional, organism-based; settings: W2, 72 h
[7] = Selectivity index, ratio of IC50 for HMEC1 to IC50 for chloroquine-sensitive Plasmodium falciparum D10
Plasmodium falciparum [8] = assay: Resistance index, ratio of IC50 for chloroquine-resistant Plasmodium falciparum W2 to IC50 for chloroquine-sensitive Plasmodium falciparum D10; format: functional
[9] = Selectivity index, ratio of IC50 for HMEC1 to IC50 for Leishmania braziliensis MHOM/IT/2006/ISS2848
Leishmania braziliensis = assay: Antileishmanial activity against Leishmania braziliensis MHOM/IT/2006/ISS2848 promastigotes assessed as inhibition of parasite growth after 72 hrs by MTT assay; format: functional, organism-based; settings: MHOM/IT/2006/ISS2848, 72 h

CC(C)/N=c1\cc2n(-c3ccc(Cl)cc3)c3ccccc3nc-2cc1Nc1ccc(Cl)cc1 [CLOFAZIMINE]
IC50 (Leishmania tropica): 2960 nM | Ratio IC50 [1]: 6.3 | Ratio IC50 [2]: 4.2 | IC50 (Plasmodium falciparum [3]): 4820 nM | IC50 (Leishmania infantum): 4480 nM | Ratio IC50 [4]: 2.6 | IC50 [5]: 18600 nM | IC50 (Plasmodium falciparum [6]): 7020 nM | Ratio IC50 [7]: 3.9 | Ratio IC50 (Plasmodium falciparum [8]): 1.5

Cl.Fc1ccc(Nc2cc3nc4ccccc4n(-c4ccc(F)c(Cl)c4)c-3c/c2=N/CCCCCCC23CCCCN2CCCC3)cc1Cl
IC50 (Leishmania tropica): 240 nM | Ratio IC50 [1]: 5.5 | Ratio IC50 [2]: 3.9 | IC50 (Plasmodium falciparum [3]): 310 nM | IC50 (Leishmania infantum): 350 nM | Ratio IC50 [4]: 2.4 | IC50 [5]: 1350 nM | IC50 (Plasmodium falciparum [6]): 570 nM | Ratio IC50 [7]: 4.4 | Ratio IC50 (Plasmodium falciparum [8]): 1.9

COc1ccc(Nc2cc3nc4ccccc4n(-c4ccccc4)c-3c/c2=N/CCCCC23CCCCN2CCCC3)cn1.Cl
IC50 (Leishmania tropica): 2320 nM | Ratio IC50 [1]: 2.7 | Ratio IC50 [2]: 1.4 | IC50 (Plasmodium falciparum [3]): 810 nM | IC50 (Leishmania infantum): 4440 nM | Ratio IC50 [4]: 18.1 | IC50 [5]: 6320 nM | IC50 (Plasmodium falciparum [6]): 350 nM | Ratio IC50 [7]: 7.8 | Ratio IC50 (Plasmodium falciparum [8]): 0.4

Cl.c1ccc(Nc2cc3nc4ccccc4n(-c4ccccc4)c-3c/c2=N/CCN2CCCC2)cc1
IC50 (Leishmania tropica): 12300 nM | Ratio IC50 [1]: 0.1 | IC50 (Plasmodium falciparum [3]): 180 nM | Ratio IC50 [4]: 12.6 | IC50 [5]: 1390 nM | IC50 (Plasmodium falciparum [6]): 110 nM | Ratio IC50 [7]: 7.7 | Ratio IC50 (Plasmodium falciparum [8]): 0.6

Cl.Clc1ccc(-n2c3c/c(=N/CCCCC45CCCCN4CCCC5)c(Nc4cccnc4)cc-3nc3ccccc32)cc1
IC50 (Leishmania tropica): 340 nM | Ratio IC50 [1]: 6.9 | Ratio IC50 [2]: 6.9 | IC50 (Plasmodium falciparum [3]): 220 nM | IC50 (Leishmania infantum): 340 nM | Ratio IC50 [4]: 12.9 | IC50 [5]: 2330 nM | IC50 (Plasmodium falciparum [6]): 180 nM | Ratio IC50 [7]: 10.6 | Ratio IC50 (Plasmodium falciparum [8]): 0.8

c1ccc(Nc2cc3nc4ccccc4n(-c4ccccc4)c-3c/c2=N/CCC[C@@H]2CCCN3CCCC[C@H]23)cc1
IC50 (Leishmania tropica): 2700 nM | Ratio IC50 [1]: 1.7 | Ratio IC50 [2]: 2.8 | IC50 (Plasmodium falciparum [3]): 120 nM | IC50 (Leishmania infantum): 1590 nM | Ratio IC50 [4]: 71.4 | IC50 [5]: 4500 nM | IC50 (Plasmodium falciparum [6]): 63 nM | Ratio IC50 [7]: 36.6 | Ratio IC50 (Plasmodium falciparum [8]): 0.5

Cl.c1ccc(Nc2cc3nc4ccccc4n(-c4ccccc4)c-3c/c2=N/CCCCC23CCCCN2CCCC3)cc1
IC50 (Leishmania tropica): 220 nM | Ratio IC50 [1]: 5.6 | Ratio IC50 [2]: 3.3 | Ratio IC50 [9]: 7.2 | IC50 (Plasmodium falciparum [3]): 210 nM | IC50 (Leishmania infantum): 370 nM | Ratio IC50 [4]: 4.5 | IC50 (Leishmania braziliensis): 170 nM | IC50 [5]: 1230 nM | IC50 (Plasmodium falciparum [6]): 270 nM | Ratio IC50 [7]: 5.9 | Ratio IC50 (Plasmodium falciparum [8]): 1.3

Cl.c1ccc(-n2c3c/c(=N/CCCCC45CCCCN4CCCC5)c(Nc4cccnc4)cc-3nc3ccccc32)cc1
IC50 (Leishmania tropica): 2010 nM | Ratio IC50 [1]: 1.9 | Ratio IC50 [2]: 0.6 | IC50 (Plasmodium falciparum [3]): 280 nM | IC50 (Leishmania infantum): 6020 nM | Ratio IC50 [4]: 18.5 | IC50 [5]: 3890 nM | IC50 (Plasmodium falciparum [6]): 210 nM | Ratio IC50 [7]: 13.9 | Ratio IC50 (Plasmodium falciparum [8]): 0.8

c1ccc(Nc2cc3nc4ccccc4n(-c4ccccc4)c-3c/c2=N/C[C@@H]2CCCN3CCCC[C@H]23)cc1
IC50 (Plasmodium falciparum [3]): 370 nM | IC50 (Plasmodium falciparum [6]): 810 nM | Ratio IC50 (Plasmodium falciparum [8]): 2.2

Cl.Fc1ccc(Nc2cc3nc4ccccc4n(-c4ccc(F)cc4)c-3c/c2=N/CCCCCCC23CCCCN2CCCC3)cc1
IC50 (Leishmania tropica): 330 nM | Ratio IC50 [1]: 5.5 | Ratio IC50 [2]: 4.3 | IC50 (Plasmodium falciparum [3]): 280 nM | IC50 (Leishmania infantum): 430 nM | Ratio IC50 [4]: 5.5 | IC50 [5]: 1870 nM | IC50 (Plasmodium falciparum [6]): 340 nM | Ratio IC50 [7]: 6.7 | Ratio IC50 (Plasmodium falciparum [8]): 1.2

Cl.c1ccc(Nc2cc3nc4ccccc4n(-c4ccccc4)c-3c/c2=N/CCC23CCCN2CCC3)cc1
IC50 (Leishmania tropica): 1100 nM | Ratio IC50 [1]: 1.7 | Ratio IC50 [2]: 2.1 | IC50 (Plasmodium falciparum [3]): 340 nM | IC50 (Leishmania infantum): 910 nM | Ratio IC50 [4]: 6.5 | IC50 [5]: 1900 nM | IC50 (Plasmodium falciparum [6]): 290 nM | Ratio IC50 [7]: 5.5 | Ratio IC50 (Plasmodium falciparum [8]): 0.9

C[C@@H]1[C@H](O)[C@@H](C)/C=C/C=C/C=C/C=C/C=C/C=C/C=C/[C@H](O[C@@H]2O[C@H](C)[C@@H](O)[C@H](N)[C@@H]2O)C[C@@H]2O[C@](O)(C[C@@H](O)C[C@@H](O)[C@H](O)CC[C@@H](O)C[C@@H](O)CC(=O)O[C@H]1C)C[C@H](O)[C@H]2C(=O)O [AMPHOTERICIN B]
IC50 (Leishmania tropica): 90 nM | Ratio IC50 [1]: 286 | Ratio IC50 [2]: 321 | Ratio IC50 [9]: 286 | IC50 (Leishmania infantum): 80 nM | IC50 (Leishmania braziliensis): 90 nM | IC50 [5]: 25700 nM

Cl.Fc1ccc(Nc2cc3nc4ccccc4n(-c4ccc(F)cc4)c-3c/c2=N/CCCCC23CCCCN2CCCC3)cc1
IC50 (Leishmania tropica): 840 nM | Ratio IC50 [1]: 2.3 | Ratio IC50 [2]: 4.1 | IC50 (Plasmodium falciparum [3]): 240 nM | IC50 (Leishmania infantum): 480 nM | Ratio IC50 [4]: 5 | IC50 [5]: 1960 nM | IC50 (Plasmodium falciparum [6]): 390 nM | Ratio IC50 [7]: 8.2 | Ratio IC50 (Plasmodium falciparum [8]): 1.6

Cl.Clc1ccc(Nc2cc3nc4ccccc4n(-c4ccc(Cl)cc4)c-3c/c2=N/CCC23CCCN2CCC3)cc1
IC50 (Leishmania tropica): 540 nM | Ratio IC50 [1]: 1.8 | Ratio IC50 [2]: 3.3 | IC50 (Plasmodium falciparum [3]): 190 nM | IC50 (Leishmania infantum): 300 nM | Ratio IC50 [4]: 2.2 | IC50 [5]: 980 nM | IC50 (Plasmodium falciparum [6]): 450 nM | Ratio IC50 [7]: 5.2 | Ratio IC50 (Plasmodium falciparum [8]): 2.4

Cc1ccc(Nc2cc3nc4ccccc4n(-c4ccc(C)cc4)c-3c/c2=N/C[C@@H]2CCCN3CCCC[C@H]23)cc1.Cl
IC50 (Leishmania tropica): 470 nM | Ratio IC50 [1]: 3.3 | Ratio IC50 [2]: 3.4 | IC50 (Plasmodium falciparum [3]): 210 nM | IC50 (Leishmania infantum): 460 nM | Ratio IC50 [4]: 3.9 | IC50 [5]: 1570 nM | IC50 (Plasmodium falciparum [6]): 400 nM | Ratio IC50 [7]: 7.5 | Ratio IC50 (Plasmodium falciparum [8]): 1.9

CCN(CC)CCCC(C)Nc1ccnc2cc(Cl)ccc12 (stereo not drawn) [CHLOROQUINE]
IC50 [5]: > 38000 nM

Cl.Clc1ccc(Nc2cc3nc4ccccc4n(-c4ccc(Cl)cc4)c-3c/c2=N/CC23CCCN2CCC3)cc1
IC50 (Leishmania tropica): 7440 nM | Ratio IC50 [1]: 0.5 | IC50 (Plasmodium falciparum [3]): 620 nM | Ratio IC50 [4]: 4.8 | IC50 [5]: 3570 nM | IC50 (Plasmodium falciparum [6]): 750 nM | Ratio IC50 [7]: 5.8 | Ratio IC50 (Plasmodium falciparum [8]): 1.2

c1ccc(Nc2cc3nc4ccccc4n(-c4ccccc4)c-3c/c2=N/CC[C@@H]2CCCN3CCCC[C@H]23)cc1
IC50 (Plasmodium falciparum [3]): 180 nM | IC50 (Plasmodium falciparum [6]): 270 nM | Ratio IC50 (Plasmodium falciparum [8]): 1.5

Cl.c1ccc(Nc2cc3nc4ccccc4n(-c4ccccc4)c-3c/c2=N/CCCCCCC23CCCCN2CCCC3)cc1
IC50 (Leishmania tropica): 120 nM | Ratio IC50 [1]: 10.3 | Ratio IC50 [2]: 5.4 | Ratio IC50 [9]: 8.9 | IC50 (Plasmodium falciparum [3]): 170 nM | IC50 (Leishmania infantum): 230 nM | Ratio IC50 [4]: 5.9 | IC50 (Leishmania braziliensis): 140 nM | IC50 [5]: 1240 nM | IC50 (Plasmodium falciparum [6]): 210 nM | Ratio IC50 [7]: 7.3 | Ratio IC50 (Plasmodium falciparum [8]): 1.2

Cl.c1ccc(Nc2cc3nc4ccccc4n(-c4ccccc4)c-3c/c2=N/CC23CCCN2CCC3)cc1
IC50 (Leishmania tropica): 9850 nM | Ratio IC50 [1]: 0.3 | IC50 (Plasmodium falciparum [3]): 640 nM | Ratio IC50 [4]: 6 | IC50 [5]: 2650 nM | IC50 (Plasmodium falciparum [6]): 440 nM | Ratio IC50 [7]: 4.1 | Ratio IC50 (Plasmodium falciparum [8]): 0.7

Clc1ccc(Nc2cc3nc4ccccc4n(-c4ccc(Cl)cc4)c-3c/c2=N/C[C@@H]2CCCN3CCCC[C@H]23)cc1
IC50 (Plasmodium falciparum [3]): 450 nM | IC50 (Plasmodium falciparum [6]): 960 nM | Ratio IC50 (Plasmodium falciparum [8]): 2.1

C[N+]12CCCCC1(CCCC/N=c1/cc3n(-c4ccccc4)c4ccccc4nc-3cc1Nc1ccccc1)CCCC2.[I-] (stereo not drawn)
IC50 (Leishmania tropica): 1090 nM | Ratio IC50 [1]: 10.1 | Ratio IC50 [2]: 4.1 | IC50 (Plasmodium falciparum [3]): 190 nM | IC50 (Leishmania infantum): 2670 nM | Ratio IC50 [4]: 41 | IC50 [5]: 11100 nM | IC50 (Plasmodium falciparum [6]): 270 nM | Ratio IC50 [7]: 58.2 | Ratio IC50 (Plasmodium falciparum [8]): 1.4

c1ccc(Nc2cc3nc4ccccc4n(-c4ccccc4)c-3c/c2=N/C[C@H]2CCCN3CCCC[C@H]23)cc1
IC50 (Plasmodium falciparum [3]): 140 nM | IC50 (Plasmodium falciparum [6]): 240 nM | Ratio IC50 (Plasmodium falciparum [8]): 1.7

CN(C)CCC/N=c1/cc2n(-c3ccc(Cl)cc3)c3ccccc3nc-2cc1Nc1cccnc1
IC50 (Leishmania tropica): 770 nM | Ratio IC50 [1]: 6.1 | Ratio IC50 [2]: 11.4 | IC50 (Plasmodium falciparum [3]): 400 nM | IC50 (Leishmania infantum): 410 nM | Ratio IC50 [4]: 16.6 | IC50 [5]: 4660 nM | IC50 (Plasmodium falciparum [6]): 280 nM | Ratio IC50 [7]: 11.7 | Ratio IC50 (Plasmodium falciparum [8]): 0.7
